Broadly, the IC50 is the concentration that gives 50% inhibition.

Data on ten compounds can be found in patent publication US12060347B2 (BRISTOL-MYERS SQUIBB COMPANY, priority 2016, dated 2024).

The experiment concerns the target T1, human PAR4 (Homo sapiens, UniProt Q96RI0).
T1 construct: expressed in transfected cells; host or cells: HEK293 PAR4 Clone 1.2A (BMS Arctic ID 383940)
T1 sequence (Q96RI0 18-385): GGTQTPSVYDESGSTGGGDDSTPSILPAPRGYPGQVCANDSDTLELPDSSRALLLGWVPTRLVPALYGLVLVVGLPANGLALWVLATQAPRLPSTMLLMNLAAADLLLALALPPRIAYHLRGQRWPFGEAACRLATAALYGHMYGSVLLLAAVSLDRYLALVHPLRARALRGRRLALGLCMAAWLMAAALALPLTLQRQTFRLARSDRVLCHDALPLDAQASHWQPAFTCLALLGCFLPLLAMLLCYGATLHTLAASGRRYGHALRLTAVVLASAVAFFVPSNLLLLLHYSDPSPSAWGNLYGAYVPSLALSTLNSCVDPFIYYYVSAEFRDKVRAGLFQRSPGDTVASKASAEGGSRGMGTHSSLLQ
Briefly: PAR4 FLIPR assay: antagonism of agonist-peptide-induced calcium mobilization in PAR4-expressing HEK293 cells. It is filed as cell-based. The following applies: H-Ala-Phe(4-F)-[…]NH2-induced intracellular calcium mobilization, 11-point curves. For orientation: A change in cytosolic calcium serves as a functional read-out for many receptors and channels.

For the compound `COc1cnc2c(-c3nc4cc(F)c(OC[C@@H](C)OC(=O)Nc5ccnc(C(=O)NCCO)c5)cc4s3)cc(C)cc2n1` [Example 442, (R)-1-((5-fluoro-2-(2-methoxy-7-methylquinoxalin-5-yl)benzo[d]thiazol-6-yl)oxy)propan-2-yl (2-((2-hydroxyethyl)carbamoyl)pyridin-4-yl)carbamate], the IC50 turned out to be 0.8 nM. As to `CNC(=O)c1cc(NC(=O)O[C@H](C)COc2cc3sc(-c4cc(C)cc5nc(OC)cnc45)nc3cc2F)ccn1` [Example 443, (R)-1-((5-fluoro-2-(2-methoxy-7-methylquinoxalin-5-yl)benzo[d]thiazol-6-yl)oxy)propan-2-yl (2-(methylcarbamoyl)pyridin-4-yl)carbamate], the IC50 is 0.6 nM.

Turning to `COc1cnc2c(-c3nc4cc(F)c(OC[C@@H](C)OC(=O)Nc5ccnc(C(N)=O)c5)cc4s3)cc(C)cc2n1` [Example 444, (R)-1-((5-fluoro-2-(2-methoxy-7-methylquinoxalin-5-yl)benzo[d]thiazol-6-yl)oxy)propan-2-yl (2-carbamoylpyridin-4-yl)carbamate], the IC50 came to 0.8 nM. On to `COc1cnc2c(-c3nc4cc(F)c(OC[C@@H](C)OC(=O)Nc5ccc(C(=O)NCCO)nc5)cc4s3)cc(C)cc2n1` [Example 445, (R)-1-((5-fluoro-2-(2-methoxy-7-methylquinoxalin-5-yl)benzo[d]thiazol-6-yl)oxy)propan-2-yl (6-((2-hydroxyethyl)carbamoyl)pyridin-3-yl)carbamate], for which the IC50 was 3.2 nM. Regarding `COc1cnc2c(-c3nc4cc(F)c(O[C@@H](C)[C@@H](C)OC(=O)Nc5ccc(C(=O)NCCC(C)(C)O)nc5)cc4s3)cc(C)cc2n1` [Example 446, (2R,3S)-3-((5-fluoro-2-(2-methoxy-7-methylquinoxalin-5-yl)benzo[d]thiazol-6-yl)oxy)butan-2-yl (6-((3-hydroxy-3-methylbutyl)carbamoyl)pyridin-3-yl)carbamate], the IC50 was 2.3 nM. As to `COc1cnc2c(-c3nc4cc(F)c(OC[C@@H](C)OC(=O)Nc5ccnc(C(=O)N(C)C)c5)cc4s3)cc(C)cc2n1` [Example 447, (R)-1-((5-fluoro-2-(2-methoxy-7-methylquinoxalin-5-yl)benzo[d]thiazol-6-yl)oxy)propan-2-yl (2-(dimethylcarbamoyl)pyridin-4-yl)carbamate], the IC50 came to 21 nM. `COc1cnc2c(-c3nc4cc(F)c(OC[C@@H](C)OC(=O)Nc5ccc(C(=O)NCC(C)(C)O)nc5)cc4s3)cc(C)cc2n1` [Example 448, (R)-1-((5-fluoro-2-(2-methoxy-7-methylquinoxalin-5-yl)benzo[d]thiazol-6-yl)oxy)propan-2-yl (6-((2-hydroxy-2-methylpropyl)carbamoyl)pyridin-3-yl)carbamate]: the IC50 came out at 2.1 nM. As for `COc1cnc2c(-c3nc4cc(F)c(OC[C@@H](C)OC(=O)Nc5ccc(C(=O)NC[C@@H](C)O)nc5)cc4s3)cc(C)cc2n1` [Example 449, (R)-1-((5-fluoro-2-(2-methoxy-7-methylquinoxalin-5-yl)benzo[d]thiazol-6-yl)oxy)propan-2-yl (6-(((R)-2-hydroxypropyl)carbamoyl)pyridin-3-yl)carbamate], the concentration for half-maximal inhibition (IC50) is 0.3 nM. The result for `COc1cnc2c(-c3nc4cc(F)c(OC[C@@H](C)OC(=O)Nc5ccc(C(=O)NC[C@H](C)O)nc5)cc4s3)cc(C)cc2n1` [Example 450, (R)-1-((5-fluoro-2-(2-methoxy-7-methylquinoxalin-5-yl)benzo[d]thiazol-6-yl)oxy)propan-2-yl (6-(((S)-2-hydroxypropyl)carbamoyl)pyridin-3-yl)carbamate] reads 0.5 nM; that for `COc1cnc2c(-c3nc4cc(F)c(O[C@@H](C)[C@@H](C)OC(=O)Nc5ccnc(C(=O)NCCO)c5)cc4s3)cc(C)cc2n1` [Example 451, (2R,3S)-3-((5-fluoro-2-(2-methoxy-7-methylquinoxalin-5-yl)benzo[d]thiazol-6-yl)oxy)butan-2-yl (2-((2-hydroxyethyl)carbamoyl)pyridin-4-yl)carbamate], 0.7 nM.
